Data: patent US20100248390A1, “COMPOSITIONS AND METHODS FOR IDENTIFYING LIGANDS OF ODORANT RECEPTORS” (DUKE UNIVERSITY, priority 2009, published 2010)

How the values were obtained:
[1] = molecular target: T1, mouse odorant receptors (ORs) (Mus musculus, UniProt Q8VG42); experiment: CRE-luciferase assay of odorant receptor activation (Dual-Glo, Hana3A cells, RTP1S), dose-response EC50; assay type: cell-based; settings: receptor MOR204-6; for log EC50, MOR204-6: 0 = no response
T1 construct: OR open reading frames were amplified from genomic DNA; expressed in transfected cells; host or cells: Hana3A cells, co-transfected with RTP1S, CRE-luciferase and pRL-SV40
T1 sequence (Q8VG42 1-310): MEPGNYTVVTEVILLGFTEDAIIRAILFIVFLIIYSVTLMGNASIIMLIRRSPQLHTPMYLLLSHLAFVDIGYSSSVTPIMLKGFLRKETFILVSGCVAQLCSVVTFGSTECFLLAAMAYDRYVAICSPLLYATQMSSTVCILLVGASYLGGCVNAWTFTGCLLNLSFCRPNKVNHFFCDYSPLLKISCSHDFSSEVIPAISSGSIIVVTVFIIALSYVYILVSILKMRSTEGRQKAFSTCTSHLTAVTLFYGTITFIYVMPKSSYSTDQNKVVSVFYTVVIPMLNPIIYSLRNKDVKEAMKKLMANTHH

[2] = molecular target: T2, mouse odorant receptors (ORs) (Mus musculus, UniProt P23275); experiment: as above; assay type: cell-based; settings: receptor MOR256-17; read-out: log EC50 of odorant at MOR256-17 (0 = no response) (converted)
T2 construct: OR open reading frames were amplified from genomic DNA; expressed in transfected cells; host or cells: Hana3A cells, co-transfected with RTP1S, CRE-luciferase and pRL-SV40
T2 sequence (P23275 1-312): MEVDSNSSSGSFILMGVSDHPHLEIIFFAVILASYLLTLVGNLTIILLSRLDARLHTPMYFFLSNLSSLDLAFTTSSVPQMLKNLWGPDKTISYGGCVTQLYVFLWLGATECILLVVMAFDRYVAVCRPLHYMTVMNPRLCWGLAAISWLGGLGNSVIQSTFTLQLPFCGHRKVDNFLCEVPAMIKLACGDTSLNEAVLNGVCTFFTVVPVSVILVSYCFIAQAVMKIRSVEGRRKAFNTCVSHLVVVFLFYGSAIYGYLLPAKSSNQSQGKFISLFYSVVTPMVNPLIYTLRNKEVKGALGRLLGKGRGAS

Structure (SMILES)	log EC50, MOR204-6 [1]	EC50 [2]	further results
O=c1ccc2ccccc2o1 [Coumarin]	–	–	EC50 ([1]; read-out: log EC50 (Table 4 value), MOR204-6 (converted)): 7.96 µM
CCCCCCCCC(=O)O [Nonanoic acid]	–	20.2 µM	–
CCCCCCCCS [Octanethiol]	–	40.9 µM	–
CCCCCCCC(=O)O [Octanoic Acid]	–	38.9 µM	–

Continued, in another order:

log EC50, MOR204-6 [1]	EC50 [2]	Structure (SMILES)	further results
−3.625	–	C=C(C)C1CC=C(C)C(=O)C1 (single isomer, unassigned; (-)) [(−)-Carvone]	–
−3.85	–	C=C(C)[C@H]1CC=C(C)C(=O)C1 [(+)-Carvone]	–
